The results in this text go back to BindingDB's records for doi:10.1016/j.bmcl.2006.08.080 (Johnson & Johnson Pharmaceutical, 2006).

For orientation: IC50 means the concentration needed to halve the response being measured. A high value points to weaker potency.

Some results are limits rather than exact numbers.

The first test has as its target T1, Aurora kinase A (Mus musculus, UniProt P97477).
T1 sequence (P97477 whole entry): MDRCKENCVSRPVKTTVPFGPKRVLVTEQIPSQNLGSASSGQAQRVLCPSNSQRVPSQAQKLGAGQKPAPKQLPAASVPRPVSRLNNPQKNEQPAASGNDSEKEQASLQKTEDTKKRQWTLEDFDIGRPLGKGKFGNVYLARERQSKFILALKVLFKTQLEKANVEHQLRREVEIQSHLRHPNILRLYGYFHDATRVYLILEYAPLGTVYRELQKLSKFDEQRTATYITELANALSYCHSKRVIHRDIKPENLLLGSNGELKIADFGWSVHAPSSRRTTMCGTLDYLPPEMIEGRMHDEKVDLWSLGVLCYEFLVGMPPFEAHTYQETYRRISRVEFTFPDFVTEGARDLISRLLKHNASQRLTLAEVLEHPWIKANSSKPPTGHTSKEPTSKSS
As to the kind of experiment: Aurora Kinase Inhibition Assay. The settings on record: pH 7.5; 22 °C. How it is done:
The compounds were tested for their ability to inhibit the phosphorylation of serine 10 of histone-H3 by purified recombinant murine Aurora-A enzyme. The phosphorylation of serine 10 was detected colorimetrically using Phospho-Histone H3 (Ser10) (6G3) Mouse mAb (9706, Cell Signaling Technologies, Danvers, MA).
Consider `CN1CCN(c2ccc(Nc3ncc4ccn(-c5cccnc5)c4n3)cc2)CC1` [N-[4-(4-methylpiperazin-1-yl)phenyl]-7-(pyridin-3-yl)-7H-pyrrolo[2,3-d]pyrimidin-2-amine], for which the IC50 is 0.013 µM.

Compound `CN1CCN(c2cccc(Nc3ncc4ccn(-c5cccc(C(=O)NC6CCCC6)c5)c4n3)c2)CC1` [N-cyclopentyl-3-(2-{[3-(4-methylpiperazin-1-yl)phenyl]amino}-7H-pyrrolo[2,3-d]pyrimidin-7-yl)benzamide] yielded an IC50 of 0.82 µM.

`COc1cccc(-n2ccc3cnc(Nc4ccc(N5CCN(C)CC5)cc4)nc32)c1` [7-(3-methoxyphenyl)-N-[4-(4-methylpiperazin-1-yl)phenyl]-7H-pyrrolo[2,3-d]pyrimidin-2-amine] showed an IC50 of 0.018 µM.

`O=S1(=O)CCN(c2ccc(Nc3ncc4ccn(-c5ccccn5)c4n3)cc2)CC1` [4-(4-{[7-(pyridin-2-yl)-7H-pyrrolo[2,3-d]pyrimidin-2-yl]amino}phenyl)-1,4-thiomorpholine-1,1-dione] yielded an IC50 of 0.0008 µM.

For the compound `CN1CCN(c2cccc(Nc3ncc4ccn(-c5cccnc5)c4n3)c2)CC1` [N-[3-(4-methylpiperazin-1-yl)phenyl]-7-(pyridin-3-yl)-7H-pyrrolo[2,3-d]pyrimidin-2-amine], half-maximal inhibition (IC50) required 0.012 µM.

For the compound `CN1CCN(c2cccc(Nc3ncc4ccn(-c5ccccc5)c4n3)c2)CC1` [N-[3-(4-methylpiperazin-1-yl)phenyl]-7-phenyl-7H-pyrrolo[2,3-d]pyrimidin-2-amine], the midpoint of inhibition, the IC50, lay at 0.003 µM.

Turning to `COc1cc2c(Nc3ccc(NC(=O)c4ccccc4)cc3)ncnc2cc1OCCCN1CCOCC1` [N-[4-({6-methoxy-7-[3-(morpholin-4-yl)propoxy]quinazolin-4-yl}amino)phenyl]benzamide], the IC50 turned out to be 0.039 µM.

Regarding `CN1CCN(c2cccc(Nc3ncc4ccn(-c5cccc(C#N)c5)c4n3)c2)CC1` [3-(2-{[3-(4-methylpiperazin-1-yl)phenyl]amino}-7H-pyrrolo[2,3-d]pyrimidin-7-yl)benzonitrile], the IC50 is 0.013 µM.

`CN1CCN(c2cccc(Nc3ncc4ccn(-c5cccc(C(N)=O)c5)c4n3)c2)CC1` [3-(2-{[3-(4-methylpiperazin-1-yl)phenyl]amino}-7H-pyrrolo[2,3-d]pyrimidin-7-yl)benzamide] yielded a half-maximal inhibitory concentration (IC50) of 0.011 µM.

For `CN1CCN(c2ccc(Nc3ncc4ccn(C5CC6CCC5C6)c4n3)cc2)CC1` (stereo not given) [7-{bicyclo[2.2.1]heptan-2-yl}-N-[4-(4-methylpiperazin-1-yl)phenyl]-7H-pyrrolo[2,3-d]pyrimidin-2-amine], inhibition was half-maximal at 0.039 µM (IC50).

`CN1CCN(c2cccc(Nc3ncc4ccn(-c5cccc(S(C)(=O)=O)c5)c4n3)c2)CC1` [7-(3-methanesulfonylphenyl)-N-[3-(4-methylpiperazin-1-yl)phenyl]-7H-pyrrolo[2,3-d]pyrimidin-2-amine]: the IC50 was determined as 0.01 µM.

`CN1CCN(c2cccc(Nc3ncc4ccn(-c5ccccn5)c4n3)c2)CC1` [N-[3-(4-methylpiperazin-1-yl)phenyl]-7-(pyridin-2-yl)-7H-pyrrolo[2,3-d]pyrimidin-2-amine] showed an IC50 of 0.005 µM.

`CN1CCN(c2ccc(Nc3ncc4ccn(C5Cc6ccccc6C5)c4n3)cc2)CC1` [7-(2,3-dihydro-1H-inden-2-yl)-N-[4-(4-methylpiperazin-1-yl)phenyl]-7H-pyrrolo[2,3-d]pyrimidin-2-amine] showed an IC50 of 0.018 µM.

In the case of `COCCN1CCN(Nc2ncc3ccn(C4CCCCC4)c3n2)CC1` [N-{7-cyclohexyl-7H-pyrrolo[2,3-d]pyrimidin-2-yl}-4-(2-methoxyethyl)piperazin-1-amine], the IC50 amounted to 0.006 µM.

Compound `CN1CCN(c2ccc(Nc3ncc4ccn(-c5cccc(S(C)(=O)=O)c5)c4n3)cc2)CC1` [7-(3-methanesulfonylphenyl)-N-[4-(4-methylpiperazin-1-yl)phenyl]-7H-pyrrolo[2,3-d]pyrimidin-2-amine] yielded an IC50 of 0.009 µM.

`COc1cccc(-n2ccc3cnc(Nc4cccc(N5CCN(C)CC5)c4)nc32)c1` [7-(3-methoxyphenyl)-N-[3-(4-methylpiperazin-1-yl)phenyl]-7H-pyrrolo[2,3-d]pyrimidin-2-amine]: it took 0.006 µM to reach half-maximal inhibition (IC50).

With `c1cc(N2CCOCC2)ccc1Nc1ncc2ccn(C3CCCCC3)c2n1` [7-cyclohexyl-N-[4-(morpholin-4-yl)phenyl]-7H-pyrrolo[2,3-d]pyrimidin-2-amine], the IC50 came to 0.049 µM.

With `O=S1(=O)CCN(c2ccc(Nc3ncc4ccn(C5CCCCC5)c4n3)cc2)CC1` [4-[4-({7-cyclohexyl-7H-pyrrolo[2,3-d]pyrimidin-2-yl}amino)phenyl]-1,4-thiomorpholine-1,1-dione], the IC50 worked out at 0.012 µM.

Compound `CC(C)c1cccc(-n2ccc3cnc(Nc4cccc(N5CCN(C)CC5)c4)nc32)c1` [N-[3-(4-methylpiperazin-1-yl)phenyl]-7-[3-(propan-2-yl)phenyl]-7H-pyrrolo[2,3-d]pyrimidin-2-amine] showed an IC50 of 0.029 µM.

Another test deals with Receptor-type tyrosine-protein kinase FLT3 (Homo sapiens, UniProt P36888). Put plainly: FLT3 Inhibition Assay.
Sequence of Receptor-type tyrosine-protein kinase FLT3 (P36888 whole entry, looked up): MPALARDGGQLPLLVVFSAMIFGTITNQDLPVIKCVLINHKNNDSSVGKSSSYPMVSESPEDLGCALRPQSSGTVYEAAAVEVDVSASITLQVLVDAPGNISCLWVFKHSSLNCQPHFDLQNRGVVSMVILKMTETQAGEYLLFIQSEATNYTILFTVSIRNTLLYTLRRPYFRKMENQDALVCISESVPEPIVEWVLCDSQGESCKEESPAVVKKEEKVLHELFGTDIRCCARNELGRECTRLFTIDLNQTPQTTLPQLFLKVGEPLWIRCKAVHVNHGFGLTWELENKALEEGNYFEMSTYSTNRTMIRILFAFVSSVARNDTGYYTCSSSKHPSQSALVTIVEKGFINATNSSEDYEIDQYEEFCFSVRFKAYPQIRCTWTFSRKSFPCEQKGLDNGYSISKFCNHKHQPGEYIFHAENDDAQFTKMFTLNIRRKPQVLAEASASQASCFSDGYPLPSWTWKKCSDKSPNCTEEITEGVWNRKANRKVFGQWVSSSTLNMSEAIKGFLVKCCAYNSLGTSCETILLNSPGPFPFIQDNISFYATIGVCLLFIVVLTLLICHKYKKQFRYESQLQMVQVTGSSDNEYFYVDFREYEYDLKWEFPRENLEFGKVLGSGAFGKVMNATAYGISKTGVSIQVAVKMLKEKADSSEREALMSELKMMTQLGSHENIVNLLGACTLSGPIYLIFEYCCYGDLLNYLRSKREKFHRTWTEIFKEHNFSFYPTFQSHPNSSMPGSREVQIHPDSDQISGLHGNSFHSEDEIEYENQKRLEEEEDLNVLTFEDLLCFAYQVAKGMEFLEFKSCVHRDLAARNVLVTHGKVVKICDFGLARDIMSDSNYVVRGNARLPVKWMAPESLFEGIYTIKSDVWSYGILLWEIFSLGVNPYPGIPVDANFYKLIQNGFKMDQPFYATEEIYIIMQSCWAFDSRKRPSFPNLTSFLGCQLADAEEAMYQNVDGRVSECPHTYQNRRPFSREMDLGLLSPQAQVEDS
Conditions: not given
How it is done: The compounds were tested for their ability to inhibit the phosphorylation of poly(Glu:Tyr) by purified recombinant human FLT3. The extent of phosphorylation was quantitated by a fluorescent polarization competition immunoassay (Ex: 485 nm, Em:530 nm) using an anti-phosphotyrosine antibody and a phosphotyrosine tracer (Green Tyrosine Kinase Assay Kit, PanVera P2837).
The compound `O=S1(=O)CCN(c2ccc(Nc3ncc4ccn(-c5ccccn5)c4n3)cc2)CC1` [4-(4-{[7-(pyridin-2-yl)-7H-pyrrolo[2,3-d]pyrimidin-2-yl]amino}phenyl)-1,4-thiomorpholine-1,1-dione] had an IC50 below 0.001 µM.
